Results published in patent US20260015350A1, “AZAQUINAZOLINE PAN-KRAS INHIBITORS” (Mirati Therapeutics, Inc., priority 2022, published 2026).

Legend:
KRas^WT = target: T1, KRas^WT (Homo sapiens, UniProt P01116); assay: KRas binding assay (TR-FRET tracer displacement), KRas WT; conditions: for IC50: TR-FRET tracer displacement, KRas WT; for inhibition at 0.01 µM: single point, 10 nM compound, TR-FRET
T1 construct: Biotinylated KRas (corresponding to amino acids 1-169, produced at Accelegan Inc.); biotin (biotinylated); purchased Accelegan Inc

KRas^G12A = target: T2, KRas^G12A (Homo sapiens, UniProt P01116, G12A); assay: KRas binding assay (TR-FRET tracer displacement), KRas G12A; conditions: for IC50: TR-FRET tracer displacement, KRas G12A; for inhibition at 0.01 µM: single point, 10 nM compound, TR-FRET
T2 construct: Biotinylated KRas (corresponding to amino acids 1-169, produced at Accelegan Inc.); biotin (biotinylated); purchased Accelegan Inc

KRas^G12C = target: T3, KRas^G12C (Homo sapiens, UniProt P01116, G12C); assay: KRas binding assay (TR-FRET tracer displacement), KRas G12C; conditions: for IC50: TR-FRET tracer displacement, KRas G12C; for inhibition at 0.01 µM: single point, 10 nM compound, TR-FRET
T3 construct: Biotinylated KRas (corresponding to amino acids 1-169, produced at Accelegan Inc.); biotin (biotinylated); purchased Accelegan Inc

KRas^G12D = target: T4, KRas^G12D (Homo sapiens, UniProt P01116, G12D); assay: KRas binding assay (TR-FRET tracer displacement), KRas G12D
T4 construct: Biotinylated KRas (corresponding to amino acids 1-169, produced at Accelegan Inc.); biotin (biotinylated); purchased Accelegan Inc

KRas^G12R = target: T5, KRas^G12R (Homo sapiens, UniProt P01116, G12R); assay: KRas binding assay (TR-FRET tracer displacement), KRas G12R
T5 construct: Biotinylated KRas (corresponding to amino acids 1-169, produced at Accelegan Inc.); biotin (biotinylated); purchased Accelegan Inc

KRas^G12S = target: T6, KRas^G12S (Homo sapiens, UniProt P01116, G12S); assay: KRas binding assay (TR-FRET tracer displacement), KRas G12S; conditions: for IC50: TR-FRET tracer displacement, KRas G12S; for inhibition at 0.01 µM: single point, 10 nM compound, TR-FRET
T6 construct: Biotinylated KRas (corresponding to amino acids 1-169, produced at Accelegan Inc.); biotin (biotinylated); purchased Accelegan Inc

KRas^G12V = target: T7, KRas^G12V (Homo sapiens, UniProt P01116, G12V); assay: KRas binding assay (TR-FRET tracer displacement), KRas G12V
T7 construct: Biotinylated KRas (corresponding to amino acids 1-169, produced at Accelegan Inc.); biotin (biotinylated); purchased Accelegan Inc

KRas^G13D = target: T8, KRas^G13D (Homo sapiens, UniProt P01116, G13D); assay: KRas binding assay (TR-FRET tracer displacement), KRas G13D; conditions: for IC50: TR-FRET tracer displacement, KRas G13D; for inhibition at 0.01 µM: single point, 10 nM compound, TR-FRET
T8 construct: Biotinylated KRas (corresponding to amino acids 1-169, produced at Accelegan Inc.); biotin (biotinylated); purchased Accelegan Inc

KRas^Q61H = target: T9, KRas^Q61H (Homo sapiens, UniProt P01116, Q61H); assay: KRas binding assay (TR-FRET tracer displacement), KRas Q61H; conditions: for IC50: TR-FRET tracer displacement, KRas Q61H; for inhibition at 0.01 µM: single point, 10 nM compound, TR-FRET
T9 construct: Biotinylated KRas (corresponding to amino acids 1-169, produced at Accelegan Inc.); biotin (biotinylated); purchased Accelegan Inc

[1] = tested on: KRas-mediated phosphorylation of ERK in MKN1 cells; assay: Inhibition of KRas-mediated phosphorylation of ERK (Cisbio HTRF pERK), MKN1 cells; assay type: cell-based; conditions: Homo sapiens, MKN-1
Outline: (§1)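 Phospho-ERK is quantified by HTRF with the Advanced pERK kit. Cells go in at 6,000/well in RPMI plus 10% FBS overnight at 37° C. under 5% CO2, with a 4-hour covered room-temperature incubation ahead of the read.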

[2] = tested on: KRas-mediated phosphorylation of ERK in PSN1 cells; assay: Inhibition of KRas-mediated phosphorylation of ERK (Cisbio HTRF pERK), PSN1 cells; assay type: cell-based; conditions: Homo sapiens
Outline: as §1

[3] = tested on: KRas-mediated phosphorylation of ERK in AsPC-1 cells; assay: Inhibition of KRas-mediated phosphorylation of ERK (Cisbio HTRF pERK), AsPC-1 cells; assay type: cell-based; conditions: Homo sapiens; for IC50: ASPC1, AsPC-1 cells, HTRF pERK
Outline: (§2)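 Compound treatment lasts 3 hrs on 6,000 seeded cells, testing 10 doses from a 10 uM top concentration in 3-fold decrements at 0.8% final DMSO. Trametinib at 0.2 uM defines the Min signal. Detection is HTRF on cold-lysed cell extracts.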

[4] = tested on: KRas-mediated phosphorylation of ERK in H727 cells; assay: Inhibition of KRas-mediated phosphorylation of ERK (Cisbio HTRF pERK), H727 cells; assay type: cell-based; conditions: Homo sapiens; for IC50: NCI-H727, H727 cells, HTRF pERK
Outline: as §2

[5] = tested on: KRas-mediated phosphorylation of ERK in A549 cells; assay: Inhibition of KRas-mediated phosphorylation of ERK (Cisbio HTRF pERK), A549 cells; assay type: cell-based; conditions: Homo sapiens; for IC50: HTRF pERK; for inhibition at 0.1 µM: A549, 3 h, single point, 100 nM compound, 3 hrs
Outline: (§3)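 Using 6,000 cells per well, compounds are applied for 3 hrs and cells then lysed at 4° C with shaking for 40 mins. Phospho-ERK is measured by HTRF after 2 hrs of lysate incubation with the d2/Cryptate antibody mixture.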

[6] = tested on: KRas-mediated phosphorylation of ERK in H460 cells; assay: Inhibition of KRas-mediated phosphorylation of ERK (Cisbio HTRF pERK), H460 cells; assay type: cell-based; conditions: Homo sapiens; for IC50: NCI-H460, HTRF pERK; for inhibition at 0.1 µM: NCI-H460, 3 h, single point, 100 nM compound, 3 hrs
Outline: as §2

[7] = tested on: KRas-mediated phosphorylation of ERK in HCT116 cells; assay: Inhibition of KRas-mediated phosphorylation of ERK (Cisbio HTRF pERK), HCT116 cells; assay type: cell-based; conditions: Homo sapiens; for IC50: HCT-116, HTRF pERK; for inhibition at 0.1 µM: HCT-116, 3 h, single point, 100 nM compound, 3 hrs
Outline: as §3

[8] = tested on: KRas-mediated phosphorylation of ERK in H358 cells; assay: Inhibition of KRas-mediated phosphorylation of ERK (Cisbio HTRF pERK), H358 cells; assay type: cell-based; conditions: Homo sapiens; for IC50: NCI-H358, HTRF pERK; for inhibition at 0.1 µM: NCI-H358, 3 h, single point, 100 nM compound, 3 hrs
Outline: as §2

T2 sequence (P01116 1-169 isoform P01116-2 G12A): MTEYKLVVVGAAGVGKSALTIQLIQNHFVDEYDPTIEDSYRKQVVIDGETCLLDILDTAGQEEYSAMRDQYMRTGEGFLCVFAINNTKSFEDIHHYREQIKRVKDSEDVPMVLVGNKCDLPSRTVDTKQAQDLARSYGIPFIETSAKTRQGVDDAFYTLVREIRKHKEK
T8 sequence (P01116 1-169 isoform P01116-2 G13D): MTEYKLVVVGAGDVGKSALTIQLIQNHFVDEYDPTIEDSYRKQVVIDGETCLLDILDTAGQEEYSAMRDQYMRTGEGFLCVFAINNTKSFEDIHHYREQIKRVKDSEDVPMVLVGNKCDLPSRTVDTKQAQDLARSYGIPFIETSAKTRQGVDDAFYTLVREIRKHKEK
T4 sequence (P01116 1-169 isoform P01116-2 G12D): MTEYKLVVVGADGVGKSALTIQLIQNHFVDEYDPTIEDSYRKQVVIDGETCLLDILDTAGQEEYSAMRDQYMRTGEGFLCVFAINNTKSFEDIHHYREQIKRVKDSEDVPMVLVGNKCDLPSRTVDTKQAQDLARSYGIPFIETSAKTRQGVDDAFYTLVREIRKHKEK
T5 sequence (P01116 1-169 isoform P01116-2 G12R): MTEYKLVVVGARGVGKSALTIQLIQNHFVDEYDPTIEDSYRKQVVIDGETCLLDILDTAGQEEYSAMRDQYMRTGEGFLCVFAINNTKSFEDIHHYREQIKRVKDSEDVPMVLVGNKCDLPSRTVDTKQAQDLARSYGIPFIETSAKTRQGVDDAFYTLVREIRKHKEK
T6 sequence (P01116 1-169 isoform P01116-2 G12S): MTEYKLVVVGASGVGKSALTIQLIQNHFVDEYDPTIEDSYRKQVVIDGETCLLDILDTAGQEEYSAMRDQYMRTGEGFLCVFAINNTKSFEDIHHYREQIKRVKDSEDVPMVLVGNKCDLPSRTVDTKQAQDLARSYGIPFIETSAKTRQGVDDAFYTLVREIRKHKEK
T1 sequence (P01116 1-169 isoform P01116-2): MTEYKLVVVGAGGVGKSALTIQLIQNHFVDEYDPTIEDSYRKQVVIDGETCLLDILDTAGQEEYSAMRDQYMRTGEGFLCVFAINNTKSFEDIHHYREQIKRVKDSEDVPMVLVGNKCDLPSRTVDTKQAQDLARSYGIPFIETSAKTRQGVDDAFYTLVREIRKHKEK
T3 sequence (P01116 1-169 isoform P01116-2 G12C): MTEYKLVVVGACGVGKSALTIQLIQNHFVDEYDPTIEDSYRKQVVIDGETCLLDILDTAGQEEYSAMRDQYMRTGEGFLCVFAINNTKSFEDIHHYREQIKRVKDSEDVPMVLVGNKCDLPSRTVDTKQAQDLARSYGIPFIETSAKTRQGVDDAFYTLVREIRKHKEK
T7 sequence (P01116 1-169 isoform P01116-2 G12V): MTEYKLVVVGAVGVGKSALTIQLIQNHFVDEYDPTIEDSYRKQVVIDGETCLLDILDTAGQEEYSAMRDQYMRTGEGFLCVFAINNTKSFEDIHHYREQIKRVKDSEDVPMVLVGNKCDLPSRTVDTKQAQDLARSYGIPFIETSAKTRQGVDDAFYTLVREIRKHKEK
T9 sequence (P01116 1-169 isoform P01116-2 Q61H): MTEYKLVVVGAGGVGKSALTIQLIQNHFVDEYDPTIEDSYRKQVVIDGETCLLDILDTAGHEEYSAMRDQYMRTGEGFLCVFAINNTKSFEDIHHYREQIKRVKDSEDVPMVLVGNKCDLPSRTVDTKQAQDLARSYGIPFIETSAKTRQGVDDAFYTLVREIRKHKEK

| Compound | IC50 (KRas^WT) [nM] | IC50 (KRas^G12A) [nM] | IC50 (KRas^G12C) [nM] | IC50 (KRas^G12D) [nM] | IC50 (KRas^G12R) [nM] | IC50 (KRas^G12S) [nM] | IC50 (KRas^G12V) [nM] | IC50 (KRas^G13D) [nM] | IC50 (KRas^Q61H) [nM] | IC50 [1] [nM] | IC50 [2] [nM] | IC50 [3] [nM] | IC50 [4] [nM] | IC50 [5] [nM] | IC50 [6] [nM] | IC50 [7] [nM] | IC50 [8] [nM] | inhibition at 0.01 µM (KRas^WT) [%] | inhibition at 0.01 µM (KRas^G12A) [%] | inhibition at 0.01 µM (KRas^G12C) [%] | also measured |
| --- | --- | --- | --- | --- | --- | --- | --- | --- | --- | --- | --- | --- | --- | --- | --- | --- | --- | --- | --- | --- | --- |
| CCc1cccc2cc3[nH]ncc3c(-c3ncc4c(N5CCCC6(CNC(=O)N6)C5)nc(OC[C@@]56CCCN5C[C@H](F)C6)nc4c3F)c12 (stereo partly drawn) [Example 769, 7-(7-(5-ethyl-1H-benzo[f]indazol-4-yl)-8-fluoro-2-(((2R,7aS)-2-fluorohexahydro-1H-pyrrolizin-7a-yl)methoxy)pyrido[4,3-d]pyrimidin-4-yl)-1,3,7-triazaspiro[4.5]decan-2-one] | < 2 | < 2 | < 2 | < 2 | < 2 | < 2 | < 2 | < 2 | < 2 | 226 | > 10000 | 510 | 567 | 2190 | 661 | 1240 | 88 |  |  |  |  |
| C[C@@]1(O)CCCN(c2nc(OC[C@@]34CCCN3C[C@H](F)C4)nc3c(F)c(-c4c(C5CC5)c(Cl)cc5[nH]ncc45)ncc23)C1 [Example 880, (3R)-1-(7-(6-chloro-5-cyclopropyl-1H-indazol-4-yl)-8-fluoro-2-(((2R,7aS)-2-fluorotetrahydro-1H-pyrrolizin-7a(5H)-yl)methoxy)pyrido[4,3-d]pyrimidin-4-yl)-3-methylpiperidin-3-ol] | 11 | 9 | 7 | 5 | 12 | 8 | 6 | 7 | 12 | 24 | > 10000 | 153 | 196 | 176 | 176 | 520 | 100 |  |  |  |  |
| CCc1c(F)ccc2cc(O)cc(-c3ncc4c(N5CCCn6nc(C(=O)N(C)C)cc6C5)nc(OC[C@]56CCCN5[C@H](COC(=O)N(C)C)CC6)nc4c3F)c12 [Example 714, ((3S,7aR)-7a-(((4-(2-(dimethylcarbamoyl)-7,8-dihydro-4H-pyrazolo[1,5-a][1,4]diazepin-5(6H)-yl)-7-(8-ethyl-7-fluoro-3-hydroxynaphthalen-1-yl)-8-fluoropyrido[4,3-d]pyrimidin-2-yl)oxy)methyl)hexahydro-1H-pyrrolizin-3-yl)methyl dimethylcarbamate] |  |  |  | < 2 | 2 |  | < 2 |  |  | 95 | > 10000 | 26 | 89 |  | 193 | 760 |  | 85 | 89 | 94 | inhibition at 0.01 µM (KRas^G12S): 95%; inhibition at 0.01 µM (KRas^G13D): 85%; inhibition at 0.01 µM (KRas^Q61H): 87%; inhibition at 0.1 µM [5]: 16%; inhibition at 0.1 µM [8]: 73% |
| CCc1c(F)ccc2cc3[nH]ncc3c(-c3ncc4c(N5CCC[C@@](C)(O)C5)nc(OC[C@@]56CCCN5C[C@H](F)C6)nc4c3F)c12 [Example 776, (3R)-1-(7-(5-ethyl-6-fluoro-1H-benzo[f]indazol-4-yl)-8-fluoro-2-(((2R,7aS)-2-fluorohexahydro-1H-pyrrolizin-7a-yl)methoxy)pyrido[4,3-d]pyrimidin-4-yl)-3-methylpiperidin-3-ol] |  |  |  | 2 | 4 |  | 2 |  |  | 16 | 9010 | 18 | 61 | 18 | 29 | 75 | 18 | 78 | 80 | 85 | inhibition at 0.01 µM (KRas^G12S): 83%; inhibition at 0.01 µM (KRas^G13D): 84%; inhibition at 0.01 µM (KRas^Q61H): 80%; inhibition at 0.1 µM [5]: 60%; inhibition at 0.1 µM [8]: 84% |
| O=S1(=O)NCC2(CCCN(c3nc(OC[C@@]45CCCN4C[C@H](F)C5)nc4c(F)c(-c5c6ccccc6cc6[nH]ncc56)ncc34)C2)N1 (stereo partly drawn) [Example 762, 7-(7-(1H-benzo[f]indazol-4-yl)-8-fluoro-2-(((2R,7aS)-2-fluorohexahydro-1H-pyrrolizin-7a-yl)methoxy)pyrido[4,3-d]pyrimidin-4-yl)-2-thia-1,3,7-triazaspiro[4.5]decane 2,2-dioxide] | < 2 | < 2 | < 2 | 2 | < 2 | < 2 | < 2 | < 2 | < 2 | 139 | 2550 | 704 | 220 | 234 | 327 | 134 | 40 |  |  |  | inhibition at 0.1 µM [6]: 22%; inhibition at 0.1 µM [7]: 36% |
| O=S1(=O)CCC2(CCCN(c3nc(OC[C@@]45CCCN4C[C@H](F)C5)nc4c(F)c(-c5cc(O)cc6cccc(Cl)c56)ncc34)C2)N1 (stereo partly drawn) [Example 604, 7-(7-(8-chloro-3-hydroxynaphthalen-1-yl)-8-fluoro-2-(((2R,7aS)-2-fluorohexahydro-1H-pyrrolizin-7a-yl)methoxy)pyrido[4,3-d]pyrimidin-4-yl)-2-thia-1,7-diazaspiro[4.5]decane 2,2-dioxide] | < 2 | 2 | < 2 | < 2 | < 2 | < 2 | < 2 | < 2 | < 2 | 2 | 425 | 81 | 71 |  |  |  |  |  |  |  | inhibition at 0.1 µM ([3]; ASPC1, 3 h, single point, 100 nM compound, 3 hrs, AsPC-1 cells): 53%; inhibition at 0.1 µM ([4]; NCI-H727, 3 h, single point, 100 nM compound, 3 hrs, H727 cells): 47%; inhibition at 0.1 µM [5]: 27%; inhibition at 0.1 µM [6]: 69%; inhibition at 0.1 µM [7]: 64%; inhibition at 0.1 µM [8]: 94% |
| CCc1c(F)ccc2cc(O)cc(-c3ncc4c(N5CCCC6(CCS(=O)(=O)N6)C5)nc(OC[C@@]56CCCN5C[C@H](F)C6)nc4c3F)c12 (stereo partly drawn) [Example 643, 7-(7-(8-ethyl-7-fluoro-3-hydroxynaphthalen-1-yl)-8-fluoro-2-(((2R,7aS)-2-fluorohexahydro-1H-pyrrolizin-7a-yl)methoxy)pyrido[4,3-d]pyrimidin-4-yl)-2-thia-1,7-diazaspiro[4.5]decane 2,2-dioxide] |  |  |  | < 2 | < 2 |  | < 2 |  |  | 4 | 625 | 6 | 21 | 16 | 5 | 13 | 2 | 98 | 88 | 99 | inhibition at 0.01 µM (KRas^G12S): 98%; inhibition at 0.01 µM (KRas^G13D): 99%; inhibition at 0.01 µM (KRas^Q61H): 100%; inhibition at 0.1 µM [6]: 100%; inhibition at 0.1 µM [7]: 87% |
